Assay results published in BindingDB's records for doi:10.7270/Q2JW8CBM (Burnham Center For Chemical Genomics, 2010).

Molecular target: Nucleotide-binding oligomerization domain-containing protein 2 (Homo sapiens, UniProt Q9HC29)
Assay: NOD2 inhibitors, SAR follow-up, set 2 (AID 2475)

Sequence of Nucleotide-binding oligomerization domain-containing protein 2 (Q9HC29 whole entry, the tested form may be a part): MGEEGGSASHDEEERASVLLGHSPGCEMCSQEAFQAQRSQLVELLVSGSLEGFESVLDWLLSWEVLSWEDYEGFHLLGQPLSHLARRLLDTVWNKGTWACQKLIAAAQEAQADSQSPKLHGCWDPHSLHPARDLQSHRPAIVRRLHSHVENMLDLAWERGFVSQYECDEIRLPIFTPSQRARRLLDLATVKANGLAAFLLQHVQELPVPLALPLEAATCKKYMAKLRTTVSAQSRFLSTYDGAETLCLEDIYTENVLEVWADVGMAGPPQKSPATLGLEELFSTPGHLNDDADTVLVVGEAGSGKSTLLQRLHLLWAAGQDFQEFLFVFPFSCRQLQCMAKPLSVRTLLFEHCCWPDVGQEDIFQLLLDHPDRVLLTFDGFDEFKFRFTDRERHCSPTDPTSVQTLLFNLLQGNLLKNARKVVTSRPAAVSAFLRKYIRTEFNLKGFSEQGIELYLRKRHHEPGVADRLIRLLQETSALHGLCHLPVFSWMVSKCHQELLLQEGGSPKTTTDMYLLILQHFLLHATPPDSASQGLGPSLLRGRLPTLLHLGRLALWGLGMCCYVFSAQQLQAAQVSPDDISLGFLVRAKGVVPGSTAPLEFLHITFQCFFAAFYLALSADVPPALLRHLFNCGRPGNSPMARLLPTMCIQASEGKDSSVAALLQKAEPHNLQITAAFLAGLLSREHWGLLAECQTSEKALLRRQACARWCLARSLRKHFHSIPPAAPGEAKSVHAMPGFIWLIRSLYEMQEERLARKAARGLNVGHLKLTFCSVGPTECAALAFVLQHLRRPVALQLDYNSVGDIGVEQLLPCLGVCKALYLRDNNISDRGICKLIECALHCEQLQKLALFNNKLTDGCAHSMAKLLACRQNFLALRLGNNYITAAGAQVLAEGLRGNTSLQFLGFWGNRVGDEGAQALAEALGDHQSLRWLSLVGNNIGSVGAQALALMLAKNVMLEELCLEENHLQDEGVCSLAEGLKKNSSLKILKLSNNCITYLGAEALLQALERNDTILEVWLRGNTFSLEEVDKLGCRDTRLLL

SMILES	IC50
Cc1cc(SCC(=O)OCC(=O)C(C#N)c2nc3ccccc3[nH]2)c(C)cc1Br (configuration not stated)	5.19 µM
Cc1ccc(C)c(SCC(=O)OCC(=O)C(C#N)c2nc3ccccc3[nH]2)c1 (configuration not stated) [MLS000392255]	4.21 µM
